Assay results taken from US8822471B2, “Compounds, pharmaceutical compositions and uses thereof” (Boehringer Ingelheim International GmbH, priority 2011, dated 2014).

Molecular target: T1, mutant form of the human GPR119 receptor (Homo sapiens, UniProt Q8TDV5, S329A/T327A)
T1 construct: T327 & S329 changed to alanines; expressed in transfected cells
T1 sequence (Q8TDV5 2-335 T327A/S329A): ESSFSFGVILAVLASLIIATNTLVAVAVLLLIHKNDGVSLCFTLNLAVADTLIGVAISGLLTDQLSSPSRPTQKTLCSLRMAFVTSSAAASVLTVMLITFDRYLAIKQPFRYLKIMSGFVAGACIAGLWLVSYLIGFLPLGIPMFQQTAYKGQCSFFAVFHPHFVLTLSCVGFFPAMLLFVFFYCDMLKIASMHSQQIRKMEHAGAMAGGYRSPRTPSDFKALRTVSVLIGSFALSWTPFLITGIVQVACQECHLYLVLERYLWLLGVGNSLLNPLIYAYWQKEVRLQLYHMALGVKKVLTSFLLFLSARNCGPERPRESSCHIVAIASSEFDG
Assay: LANCE cAMP-384 assay in HEK293 cells stably expressing a mutant form of the human GPR119 receptor
Assay type: cell-based
Conditions: HEK293 cells stably expressing mutant human GPR119, LANCE cAMP-384 Kit, 20 min at 37° C.
Procedure: Quantitative detection of cAMP accumulation from cells expressing human GPR119 receptor is achieved using Perkin Elmer's LANCE cAMP-384 Kit (Cat#AD0264) according to the manufacturer's protocol. Briefly, HEK293 cells stably expressing a mutant form of the human GPR119 receptor as assay tool (Methionine 1 replaced with the amino acid sequence […], and T327 & S329 changed to alanines; SEQ ID No. 1) are grown to 50-70% confluency in cell culture media (DMEM, 10% heat inactivated Fetal Bovine Serum, 50 I.U./mL penicillin, 50 μg/mL streptomycin, 10 mM HEPES, 20 μg/mL G418 Sulfate). On the day of the assay, GPR119 stable HEK293 cells are lifted from the tissue culture plate and 1000 cells/well are incubated along with various concentrations of test compounds for 20 min at 37° C. Detection Buffer (50 mM HEPES, 10 mM calcium chloride, 0.35% Triton X-100, 1 mg/mL BSA) containing cAMP-specific antibody is then added to all wells and allowed to equilibrate in the dark for 10 minutes at room temperature. Upon equilibration, Detection Buffer containing europium-labeled cAMP tracer complex is added to all wells and allowed to react for 1 hour at room temperature. After 1 hour, bound europium-labeled cAMP tracer is measured using a Perkin Elmer Envision plate reader. The quantity of cAMP generated in each well is derived from a standard curve. EC50 is determined using nonlinear regression analysis of the cAMP values over a range of agonist concentration (12 points spanning the range from 30 μM to 100 pM).

| Compound | EC50 |
| --- | --- |
| Cc1nnnn1-c1ccc(C(=O)N(C2CC2)[C@@H]2CCN(c3ccc(C(F)(F)F)cn3)C[C@@H]2F)cc1 (single isomer, unassigned) [Example 120] | 0.745 µM |
| O=C(c1ccc(-n2cnnn2)c(F)c1)N(C1CC1)[C@@H]1CCN(c2ccc(C(F)(F)F)cn2)C[C@@H]1F (single isomer, unassigned) [Example 121] | 0.134 µM |
| Cc1nccn1-c1ccc(C(=O)N(C2CC2)C2CCN(c3ncc(C(F)(F)F)cc3F)CC2)cc1 [Example 90, N-Cyclopropyl-N-(3′-fluoro-5′-trifluoromethyl-3,4,5,6-tetrahydro-2H-[1,2′]bipyridinyl-4-yl)-4-(2-methyl-imidazol-1-yl)-benzamide] | 0.149 µM |
| O=C(c1ccc(-n2cncn2)cc1)N(C1CC1)C1CCN(c2ncc(C(F)(F)F)cc2F)CC1 [Example 91, N-Cyclopropyl-N-(3′-fluoro-5′-trifluoromethyl-3,4,5,6-tetrahydro-2H-[1,2′]bipyridinyl-4-yl)-4-[1,2,4]triazol-1-yl-benzamide] | 0.048 µM |
| Cc1ncnn1-c1ccc(C(=O)N(C2CC2)C2CCN(c3ncc(C(F)(F)F)cc3F)CC2)cc1 [Example 92, N-Cyclopropyl-N-(3′-fluoro-5′-trifluoromethyl-3,4,5,6-tetrahydro-2H-[1,2′]bipyridinyl-4-yl)-4-(5-methyl-[1,2,4]triazol-1-yl)-benzamide] | 0.265 µM |
| Cc1nccn1-c1ccc(C(=O)N(C2CC2)C2CCN(c3ncc(C(F)(F)F)cc3F)CC2)cc1F [Example 93, N-Cyclopropyl-3-fluoro-N-(3′-fluoro-5′-trifluoromethyl-3,4,5,6-tetrahydro-2H-[1,2′]bipyridinyl-4-yl)-4-(2-methyl-imidazol-1-yl)-benzamide] | 0.168 µM |
| O=C(c1ccc(-n2cncn2)c(F)c1)N(C1CC1)C1CCN(c2ncc(C(F)(F)F)cc2F)CC1 [Example 94, N-Cyclopropyl-3-fluoro-N-(3′-fluoro-5′-trifluoromethyl-3,4,5,6-tetrahydro-2H-[1,2′]bipyridinyl-4-yl)-4-[1,2,4]triazol-1-yl-benzamide] | 0.01 µM |
| Cc1ncnn1-c1ccc(C(=O)N(C2CC2)C2CCN(c3ncc(C(F)(F)F)cc3F)CC2)cc1F [Example 95, N-Cyclopropyl-3-fluoro-N-(3′-fluoro-5′-trifluoromethyl-3,4,5,6-tetrahydro-2H-[1,2′]bipyridinyl-4-yl)-4-(5-methyl-[1,2,4]triazol-1-yl)-benzamide] | 0.595 µM |
| Cc1nccn1-c1ccc(C(=O)N(C2CC2)C2CCN(c3nc(C(C)C)no3)CC2)cc1 [Example 96, N-Cyclopropyl-N-[1-(3-isopropyl-[1,2,4]oxadiazol-5-yl)-piperidin-4-yl]-4-(2-methyl-imidazol-1-yl)-benzamide] | 1.63 µM |
| CC(C)c1noc(N2CCC(N(C(=O)c3ccc(-n4cncn4)cc3)C3CC3)CC2)n1 [Example 97, N-Cyclopropyl-N-[1-(3-isopropyl-[1,2,4]oxadiazol-5-yl)-piperidin-4-yl]-4-[1,2,4]triazol-1-yl-benzamide] | 0.17 µM |
| Cc1nccn1-c1ccc(C(=O)N(C2CC2)C2CCN(c3nc(C(C)C)no3)CC2)cc1F [Example 99, N-Cyclopropyl-3-fluoro-N-[1-(3-isopropyl-[1,2,4]oxadiazol-5-yl)-piperidin-4-yl]-4-(2-methyl-imidazol-1-yl)-benzamide] | 1.74 µM |
| CC(C)c1noc(N2CCC(N(C(=O)c3ccc(-n4cncn4)c(F)c3)C3CC3)CC2)n1 [Example 100, N-Cyclopropyl-3-fluoro-N-[1-(3-isopropyl-[1,2,4]oxadiazol-5-yl)-piperidin-4-yl]-4-[1,2,4]triazol-1-yl-benzamide] | 0.045 µM |
| Cc1ncnn1-c1ccc(C(=O)N(C2CC2)C2CCN(c3nc(C(C)C)no3)CC2)cc1F [Example 101, N-Cyclopropyl-3-fluoro-N-[1-(3-isopropyl-[1,2,4]oxadiazol-5-yl)-piperidin-4-yl]-4-(5-methyl-[1,2,4]triazol-1-yl)-benzamide] | 1.13 µM |
| CCc1cnc(N2CCC(N(C(=O)c3ccc(-n4ccnc4C)cc3)C3CC3)CC2)nc1 [Example 102, N-Cyclopropyl-N-[1-(5-ethyl-pyrimidin-2-yl)-piperidin-4-yl]-4-(2-methyl-imidazol-1-yl)-benzamide] | 1.09 µM |
| CCc1cnc(N2CCC(N(C(=O)c3ccc(-n4ncnc4C)cc3)C3CC3)CC2)nc1 [Example 103, N-Cyclopropyl-N-[1-(5-ethyl-pyrimidin-2-yl)-piperidin-4-yl]-4-(5-methyl-[1,2,4]triazol-1-yl)-benzamide] | 1.59 µM |
| CCc1cnc(N2CCC(N(C(=O)c3ccc(-n4ccnc4C)c(F)c3)C3CC3)CC2)nc1 [Example 104, N-Cyclopropyl-N-[1-(5-ethyl-pyrimidin-2-yl)-piperidin-4-yl]-3-fluoro-4-(2-methyl-imidazol-1-yl)-benzamide] | 1.95 µM |
| CCc1cnc(N2CCC(N(C(=O)c3ccc(-n4cncn4)c(F)c3)C3CC3)CC2)nc1 [Example 105, N-Cyclopropyl-N-[1-(5-ethyl-pyrimidin-2-yl)-piperidin-4-yl]-3-fluoro-4-[1,2,4]triazol-1-yl-benzamide] | 0.053 µM |
| CCc1cnc(N2CCC(N(C(=O)c3ccc(-n4ncnc4C)c(F)c3)C3CC3)CC2)nc1 [Example 106, N-Cyclopropyl-N-[1-(5-ethyl-pyrimidin-2-yl)-piperidin-4-yl]-3-fluoro-4-(5-methyl-[1,2,4]triazol-1-yl)-benzamide] | 0.885 µM |
| Cc1nccn1-c1ccc(C(=O)N(C2CC2)C2CCN(c3ncc(Cl)cn3)CC2)cc1 [Example 107, N-[1-(5-Chloro-pyrimidin-2-yl)-piperidin-4-yl]-N-cyclopropyl-4-(2-methyl-imidazol-1-yl)-benzamide] | 0.549 µM |
| O=C(c1ccc(-n2cncn2)cc1)N(C1CC1)C1CCN(c2ncc(Cl)cn2)CC1 [Example 108, N-[1-(5-Chloro-pyrimidin-2-yl)-piperidin-4-yl]-N-cyclopropyl-4-[1,2,4]triazol-1-yl-benzamide] | 0.552 µM |
| Cc1ncnn1-c1ccc(C(=O)N(C2CC2)C2CCN(c3ncc(Cl)cn3)CC2)cc1 [Example 109, N-[1-(5-Chloro-pyrimidin-2-yl)-piperidin-4-yl]-N-cyclopropyl-4-(5-methyl-[1,2,4]triazol-1-yl)-benzamide] | 1.74 µM |
| O=C(c1ccc(-n2cnnn2)cc1)N(C1CC1)C1CCN(c2ncc(Cl)cn2)CC1 [Example 110, N-[1-(5-Chloro-pyrimidin-2-yl)-piperidin-4-yl]-N-cyclopropyl-4-tetrazol-1-yl-benzamide] | 0.36 µM |
| Cc1nnnn1-c1ccc(C(=O)N(C2CC2)C2CCN(c3ncc(Cl)cn3)CC2)cc1 [Example 111, N-[1-(5-Chloro-pyrimidin-2-yl)-piperidin-4-yl]-N-cyclopropyl-4-(5-methyl-tetrazol-1-yl)-benzamide] | 0.407 µM |
| Cc1nccn1-c1ccc(C(=O)N(C2CC2)C2CCN(c3ncc(Cl)cn3)CC2)cc1F [Example 112, N-[1-(5-Chloro-pyrimidin-2-yl)-piperidin-4-yl]-N-cyclopropyl-3-fluoro-4-(2-methyl-imidazol-1-yl)-benzamide] | 1.5 µM |
| O=C(c1ccc(-n2cncn2)c(F)c1)N(C1CC1)C1CCN(c2ncc(Cl)cn2)CC1 [Example 113, N-[1-(5-Chloro-pyrimidin-2-yl)-piperidin-4-yl]-N-cyclopropyl-3-fluoro-4-[1,2,4]triazol-1-yl-benzamide] | 0.047 µM |
| O=C(c1ccc(-n2cnnn2)c(F)c1)N(C1CC1)C1CCN(c2ncc(Cl)cn2)CC1 [Example 115, N-[1-(5-Chloro-pyrimidin-2-yl)-piperidin-4-yl]-N-cyclopropyl-3-fluoro-4-tetrazol-1-yl-benzamide] | 0.054 µM |
| Cc1nnnn1-c1ccc(C(=O)N(C2CC2)C2CCN(c3ncc(Cl)cn3)CC2)cc1F [Example 116, N-[1-(5-Chloro-pyrimidin-2-yl)-piperidin-4-yl]-N-cyclopropyl-3-fluoro-4-(5-methyl-tetrazol-1-yl)-benzamide] | 0.294 µM |
| O=C(c1ccc(-n2cnnn2)cc1)N(C1CC1)C1CCN(c2ncc(C(F)(F)F)cc2F)CC1 [Example 117, N-Cyclopropyl-N-(3′-fluoro-5′-trifluoromethyl-3,4,5,6-tetrahydro-2H-[1,2′]bipyridinyl-4-yl)-4-tetrazol-1-yl-benzamide] | 0.053 µM |
| Cc1nnnn1-c1ccc(C(=O)N(C2CC2)C2CCN(c3ncc(C(F)(F)F)cc3F)CC2)cc1 [Example 118, N-Cyclopropyl-N-(3′-fluoro-5′-trifluoromethyl-3,4,5,6-tetrahydro-2H-[1,2′]bipyridinyl-4-yl)-4-(5-methyl-tetrazol-1-yl)-benzamide] | 0.101 µM |
